This is an account of results in article PMC7803792 (Slas Discovery, 2021).

“Also recorded” adds a separate entry of the source.

The target of assay [1] is T1, SARS-CoV-2 nsp10-nsp16 complex (Severe acute respiratory syndrome coronavirus 2, UniProt P0DTD1). To be noted: FP, 30 nM FAM-RNA, maximum FP signal.
Assay [2] concerns the target T1, SARS-CoV-2 nsp10-nsp16 complex. The experiment in a line: FP-based RNA displacement assay. To be noted: concentration for 50% displacement of 30 nM FAM-RNA from 0.5 µM nsp10-nsp16 complex. Type of assay: binding.
The target is the same in assay [3]. The experiment in a line: Isothermal titration calorimetry. Type of assay: binding.
Assay [4] concerns the target SARS-CoV nsp10-nsp16 complex. To be noted: cited from earlier work.

The compound 5′ N7-meGpppACCCCC-FAM 3′ gave a Bmax in assay [1] of 270 ± 5 mP.

On to `Nc1nc2c(ncn2[C@@H]2O[C@H](COP(=O)(O)OP(=O)(O)OP(=O)(O)OC[C@H]3O[C@@H](n4cnc5c(N)ncnc54)[C@H](O)[C@@H]3O)[C@@H](O)[C@H]2O)c(=O)[nH]1` [GpppA, G(5′)ppp(5′)A], for which the “Kdisp (K displacement)” value in assay [2] is “unable to displace; also recorded: did not disrupt; also recorded: no RNA displacement”.

Take `Nc1nc2c(ncn2[C@@H]2O[C@H](COP(=O)(O)OP(=O)(O)OP(=O)(O)OC[C@H]3O[C@@H](n4cnc5c(=O)[nH]c(N)nc54)[C@H](O)[C@@H]3O)[C@@H](O)[C@H]2O)c(=O)[nH]1` [GpppG, G(5′)ppp(5′)G]: the “Kdisp (K displacement)” value in assay [2] is “unable to displace; also recorded: did not disrupt; also recorded: no RNA displacement”.

Regarding `Cn1c[n+]([C@@H]2O[C@H](COP(=O)(O)OP(=O)(O)OP(=O)(O)OC[C@H]3O[C@@H](n4cnc5c(N)ncnc54)[C@H](O)[C@@H]3O)[C@@H](O)[C@H]2O)c2nc(N)[nH]c(=O)c21` [N7-meGpppA, m7G(5′)ppp(5′)A], in assay [2], the “Kdisp (K displacement)” value is recorded as 20 ± 6 µM.

For `Cn1c[n+]([C@@H]2O[C@H](COP(=O)(O)OP(=O)(O)OP(=O)(O)OC[C@H]3O[C@@H](n4cnc5c(=O)[nH]c(N)nc54)[C@H](O)[C@@H]3O)[C@@H](O)[C@H]2O)c2nc(N)[nH]c(=O)c21` [N7-meGpppG, m7G(5′)ppp(5′G], the “Kdisp (K displacement)” value in assay [2] is 17 ± 3 µM.

Take `C[S+](CC[C@H](N)C(=O)[O-])C[C@H]1O[C@@H](n2cnc3c(N)ncnc32)[C@H](O)[C@@H]1O` (stereo partly drawn) [SAM, S-adenosyl-L-methionine]: the dissociation constant Kd in assay [3] was 3.4 ± 1.5 µM; in assay [4], 5.59 ± 1.15 µM.

The term Kd denotes the constant that tells how readily two partners part at equilibrium.
